Results reported in PubChem BioAssay AID1963974 (Molecular Pharmacology Branch, DTP, NCI, 2024).

System: 648629-189-R-J1-PDC spheroids with HUVEC/MSC, viability
Assay: Anticancer human tumor 648629-189-R-J1-PDC patient-derived bladder carcinoma cell line growth inhibition [PI3K]
Conditions: for IC50: curve of first compound; for viability, T/C: stronger effect = lower value; active means viability on the fitted dose curve at most 10% of control; inactive means the rest
Procedure, shortened: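 Viability of mixed-cell spheroids was determined after exposure to pairwise combinations, one partner being inavolisib, alpelisib, duvelisib or copanlisib. Highest tested concentration matched clinical Cmax where known and 10 microM where not, descending in half-log steps.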

[1] = second compound 0.00316 µM, first compound 0.0316 µM
[2] = second compound 0.00316 µM, first compound 0.1 µM
[3] = second compound 0.00316 µM, first compound 0.316 µM
[4] = second compound 0.00316 µM, first compound 1 µM
[5] = second compound 0.01 µM, first compound 0.0316 µM
[6] = second compound 0.01 µM, first compound 0.1 µM
[7] = second compound 0.01 µM, first compound 0.316 µM
[8] = second compound 0.01 µM, first compound 1 µM
[9] = second compound 0.0316 µM, first compound 0.0316 µM
[10] = second compound 0.0316 µM, first compound 0.1 µM
[11] = second compound 0.0316 µM, first compound 0.316 µM
[12] = second compound 0.0316 µM, first compound 1 µM
[13] = second compound 0.1 µM, first compound 0.0316 µM
[14] = second compound 0.1 µM, first compound 0.1 µM
[15] = second compound 0.1 µM, first compound 0.316 µM
[16] = second compound 0.1 µM, first compound 1 µM
[17] = second compound 0.316 µM, first compound 0.0316 µM
[18] = second compound 0.316 µM, first compound 0.1 µM
[19] = second compound 0.316 µM, first compound 0.316 µM
[20] = second compound 0.316 µM, first compound 1 µM
[21] = second compound 1 µM, first compound 0.0316 µM
[22] = second compound 1 µM, first compound 0.1 µM
[23] = second compound 1 µM, first compound 0.316 µM
[24] = second compound 1 µM, first compound 1 µM
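Further: spheroids exposed to agents for seven days before reading.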
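Wherever viability, T/C is given: percent of vehicle control luminescence where 100% = DMSO treated spheroids.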

CC(C)NCC(C(=O)N1CCN(c2ncnc3c2C(C)CC3O)CC1)c1ccc(Cl)cc1 (centres undefined) + COc1c(OCCCN2CCOCC2)ccc2c3n(c(=NC(=O)c4cnc(N)nc4)nc12)CCN3
698 nM: IC50 (second compound 0.0316 µM)
144 nM: IC50 (second compound 0.1 µM)
inactive: viability, T/C [1] 90.2% | viability, T/C [2] 91.7% | viability, T/C [3] 79% | viability, T/C [4] 45.4% | viability, T/C (second compound 0.00316 µM, first compound 3.16 µM) 26.1% | viability, T/C (second compound 0.00316 µM, first compound 10 µM) 14.3% | viability, T/C [5] 102% | viability, T/C [6] 73.5% | viability, T/C [7] 75.1% | viability, T/C [8] 54% | viability, T/C (second compound 0.01 µM, first compound 3.16 µM) 26.2% | viability, T/C (second compound 0.01 µM, first compound 10 µM) 13.3% | viability, T/C [9] 77.7% | viability, T/C [10] 77.6% | viability, T/C [11] 67.1% | viability, T/C [12] 40.5% | viability, T/C (second compound 0.0316 µM, first compound 3.16 µM) 24.6% | viability, T/C (second compound 0.0316 µM, first compound 10 µM) 11.6% | viability, T/C [13] 60.1% | viability, T/C [14] 51.3% | viability, T/C [15] 45% | viability, T/C [16] 27% | viability, T/C (second compound 0.1 µM, first compound 3.16 µM) 16.9% | viability, T/C [17] 19.3% | viability, T/C [18] 18.4% | viability, T/C [19] 14.6% | viability, T/C [20] 12%
901 nM: IC50 (second compound 0.00316 µM)
active: viability, T/C (second compound 0.1 µM, first compound 10 µM) 8.23% | viability, T/C (second compound 0.316 µM, first compound 3.16 µM) 7.28% | viability, T/C (second compound 0.316 µM, first compound 10 µM) 2.74% | viability, T/C [21] 2.91% | viability, T/C [22] 2.63% | viability, T/C [23] 3.85% | viability, T/C [24] 3% | viability, T/C (second compound 1 µM, first compound 3.16 µM) 2.11% | viability, T/C (second compound 1 µM, first compound 10 µM) 0.84%
< 31.6 nM: IC50 (second compound 0.316 µM) | IC50 (second compound 1 µM)
1030 nM: IC50 (second compound 0.01 µM)

CCN1CCN(Cc2ccc(Nc3ncc(F)c(-c4cc(F)c5nc(C)n(C(C)C)c5c4)n3)nc2)CC1 + COc1c(OCCCN2CCOCC2)ccc2c3n(c(=NC(=O)c4cnc(N)nc4)nc12)CCN3
inactive: viability, T/C (second compound 0.00316 µM, first compound 0.00316 µM) 91% | viability, T/C (second compound 0.00316 µM, first compound 0.01 µM) 94.8% | viability, T/C [1] 110% | viability, T/C [2] 101% | viability, T/C [3] 115% | viability, T/C [4] 104% | viability, T/C (second compound 0.01 µM, first compound 0.00316 µM) 102% | viability, T/C (second compound 0.01 µM, first compound 0.01 µM) 87.8% | viability, T/C [5] 98.9% | viability, T/C [6] 96.5% | viability, T/C [7] 103% | viability, T/C [8] 106% | viability, T/C (second compound 0.0316 µM, first compound 0.00316 µM) 84.9% | viability, T/C (second compound 0.0316 µM, first compound 0.01 µM) 79% | viability, T/C [9] 91.3% | viability, T/C [10] 88.5% | viability, T/C [11] 87.9% | viability, T/C [12] 91% | viability, T/C (second compound 0.1 µM, first compound 0.00316 µM) 58.6% | viability, T/C (second compound 0.1 µM, first compound 0.01 µM) 62.4% | viability, T/C [13] 56% | viability, T/C [14] 58.5% | viability, T/C [15] 66.6% | viability, T/C [16] 66.1% | viability, T/C (second compound 0.316 µM, first compound 0.00316 µM) 21.4% | viability, T/C (second compound 0.316 µM, first compound 0.01 µM) 18.9% | viability, T/C [17] 18.8% | viability, T/C [18] 19.7% | viability, T/C [19] 24.1% | viability, T/C [20] 21.7%
< 3.16 nM: IC50 (second compound 0.316 µM) | IC50 (second compound 1 µM)
> 1000 nM: IC50 (second compound 0.00316 µM) | IC50 (second compound 0.01 µM) | IC50 (second compound 0.0316 µM) | IC50 (second compound 0.1 µM)
active: viability, T/C (second compound 1 µM, first compound 0.00316 µM) 3.05% | viability, T/C (second compound 1 µM, first compound 0.01 µM) 2.93% | viability, T/C [21] 2.76% | viability, T/C [22] 4.51% | viability, T/C [23] 6.23% | viability, T/C [24] 9.27%
